Test results reported in the supplement of paper PMC10307832.

Compound: COc1cccc2c1C(=O)c1c(O)c3c(c(O)c1C2=O)C[C@@](O)(C(=O)CO)C[C@@H]3O[C@H]1C[C@H](N)[C@H](O)[C@H](C)O1 [Doxorubicin] + NC(=O)Nc1cc(-c2cccc(F)c2)sc1C(=O)N[C@H]1CCCNC1 [AZD7762] (partner 0.2 µM)
Experiment: relative viability (nuclei count vs DMSO), 5 days (fraction); higher = more cells survive
Conditions: first compound 0.001 µM
Outline: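 Lung cancer cell lines were pin-tool dosed in 1536-well plates on the day after seeding, with either a lone drug or a fixed anchor-drug dose plus five library-drug doses (not always all listed) in √10 steps. Nuclei were counted on 4× images after 5 days. Relative viability is the ratio of treated-well to vehicle-well nuclei counts, with each value a median of duplicate plates.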

Cell Line | relative viability
NCI-H358 | 0.548
NCI-H322M | 0.514
HCC-78 | 0.535
LXF-289 | 1.04
BEN | 0.96
HARA | 1.09
HCC-827 | 0.134
A-427 | 0.733
NCI-H647 | 0.352
PC-3 [JPC-3] | 0.901
NCI-H1755 | 0.523
NCI-H650 | 0.949
NCI-H3122 | 0.964
NCI-H441 | 1.05
NCI-H1395 | 0.414
201T | 0.626
NCI-H1975 | 0.738
HOP-62 | 0.533
NCI-H2405 | 0.785
NCI-H1355 | 0.838
NCI-H838 | 0.921
NCI-H1666 | 0.909
EPLC-272H | 0.337
NCI-H2347 | 0.618
NCI-H1915 | 0.694
NCI-H1437 | 1.11
NCI-H460 | 0.659
NCI-H1792 | 0.653
NCI-H2085 | 0.972
HCC-15 | 1.21

Same assay, conditions: first compound 0.003162 µM

Cell Line | relative viability
NCI-H358 | 0.542
NCI-H322M | 0.546
HCC-78 | 0.606
LXF-289 | 1.11
BEN | 0.65
HARA | 0.25
HCC-827 | 0.214
LOU-NH91 | 0.79
A-427 | 0.857
NCI-H647 | 0.417
PC-3 [JPC-3] | 0.927
NCI-H1755 | 0.489
NCI-H650 | 0.921
NCI-H3122 | 1.03
NCI-H441 | 1.07
NCI-H1395 | 0.435

Cell Line | relative viability
201T | 0.756
NCI-H1975 | 0.623
HOP-62 | 0.54
NCI-H2405 | 0.802
NCI-H1355 | 0.741
NCI-H838 | 0.934
NCI-H1666 | 0.762
EPLC-272H | 0.182
NCI-H2347 | 0.895
NCI-H1915 | 0.761
NCI-H1437 | 0.994
NCI-H460 | 0.635
NCI-H1792 | 0.824
NCI-H2085 | 0.974
HCC-15 | 1.18

Same assay, conditions: first compound 0.01 µM

Cell Line | relative viability
NCI-H358 | 0.597
NCI-H322M | 0.6
HCC-78 | 0.703
LXF-289 | 1.09
BEN | 0.82
HARA | 0.38
HCC-827 | 0.197
LOU-NH91 | 0.77
A-427 | 0.713
NCI-H647 | 0.466
PC-3 [JPC-3] | 0.96
NCI-H1755 | 0.393
NCI-H650 | 0.948
NCI-H3122 | 0.894
NCI-H441 | 0.954
NCI-H1395 | 0.421

Cell Line | relative viability
201T | 0.642
NCI-H1975 | 0.764
HOP-62 | 0.519
NCI-H2405 | 0.801
NCI-H1355 | 0.741
NCI-H838 | 0.913
NCI-H1666 | 0.882
EPLC-272H | 0.164
NCI-H2347 | 0.668
NCI-H1915 | 0.644
NCI-H1437 | 1.04
NCI-H460 | 0.561
NCI-H1792 | 0.721
NCI-H2085 | 0.856
HCC-15 | 1.05

Same assay, conditions: first compound 0.03162 µM

Cell Line | relative viability
NCI-H358 | 0.367
NCI-H322M | 0.502
HCC-78 | 0.636
LXF-289 | 1.2
BEN | 0.562
HARA | 0.267
HCC-827 | 0.191
LOU-NH91 | 0.722
A-427 | 0.463
NCI-H647 | 0.19
PC-3 [JPC-3] | 0.762
NCI-H1755 | 0.485
NCI-H650 | 0.89
NCI-H3122 | 0.989
NCI-H441 | 0.853
NCI-H1395 | 0.347

Cell Line | relative viability
201T | 0.556
NCI-H1975 | 0.599
HOP-62 | 0.527
NCI-H2405 | 0.682
NCI-H1355 | 0.673
NCI-H838 | 0.919
NCI-H1666 | 0.795
EPLC-272H | 0.221
NCI-H2347 | 0.686
NCI-H1915 | 0.688
NCI-H1437 | 1.09
NCI-H460 | 0.177
NCI-H1792 | 0.522
NCI-H2085 | 1.1
HCC-15 | 1.03

Same assay, conditions: first compound 0.1 µM

Cell Line | relative viability
NCI-H358 | 0.258
NCI-H322M | 0.429
HCC-78 | 0.503
LXF-289 | 1.06
BEN | 0.624
HARA | 0.377
HCC-827 | 0.174
LOU-NH91 | 0.429
A-427 | 0.482
NCI-H647 | 0.0766
PC-3 [JPC-3] | 0.585
NCI-H1755 | 0.491
NCI-H650 | 0.718
NCI-H3122 | 0.952
NCI-H441 | 0.912
NCI-H1395 | 0.377
201T | 0.577
NCI-H1975 | 0.391
HOP-62 | 0.397
NCI-H2405 | 0.381
NCI-H1355 | 0.72
NCI-H838 | 0.749
NCI-H1666 | 0.596
EPLC-272H | 0.241
NCI-H2347 | 0.58
NCI-H1915 | 0.714
NCI-H1437 | 0.877
NCI-H460 | 0.0853
NCI-H1792 | 0.45
NCI-H2085 | 0.896
